Measurements taken from ChEMBL document CHEMBL1201862, “PubChem BioAssay data set” (2004).
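Five concentrations, 48 hours, 96-well plates. GI50: concentration for 50% inhibition of growth.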 The source made the active and inactive calls. Cut-off read from the data, not from the text of the source: active = GI50 up to about 1.1 µM and inactive = higher. Positions of bridges follow the written chain, without caps; N, C: chain ends. Non-standard residues stand in square brackets, D forms with d. Residues, ends and D or L forms follow the SMILES beside them. ξ: configuration not given here. *: point of attachment. X28 = O=C(/C=C/C=C/C=C/C=C/C=C/C(=O)*)NC1=C(O)CCC1=O; Pro(4R-Me) = C[C@H]1CN[C@H](C(=O)O)C1; NMeA = CN[C@@H](C)C(=O)O; ξF = NC(Cc1ccccc1)C(=O)O; ξA = CC(N)C(=O)O

Assays:
Assay in all cases: NCI anticancer screen, dose series, 48 h
UO-31 = test system: UO-31
Hs-578T = test system: Hs-578T
SK-MEL-28 = test system: SK-MEL-28
PC-3 = test system: PC-3
OVCAR-4 = test system: OVCAR-4
SK-OV-3 = test system: SK-OV-3
SR = test system: SR
COLO 205 = test system: COLO 205
IGROV-1 = test system: IGROV-1
HOP-62 = test system: HOP-62
UACC-62 = test system: UACC-62
RPMI-8226 = test system: RPMI-8226
SK-MEL-5 = test system: SK-MEL-5
SW-620 = test system: SW-620
NCI/ADR-RES = test system: NCI/ADR-RES
OVCAR-8 = test system: OVCAR-8
A549 = test system: A549
MDA-N = test system: MDA-N
SK-MEL-2 = test system: SK-MEL-2
SF-295 = test system: SF-295
SF-539 = test system: SF-539
HCT-15 = test system: HCT-15
HL-60 = test system: HL-60
CAKI-1 = test system: CAKI-1
NCI-H522 = test system: NCI-H522
SN12C = test system: SN12C
MDA-MB-231 = test system: MDA-MB-231
BT-549 = test system: BT-549
UACC-257 = test system: UACC-257
KM12 = test system: KM12
786-0 = test system: 786-0
U-251 = test system: U-251
NCI-H460 = test system: NCI-H460
CCRF-CEM = test system: CCRF-CEM
NCI-H23 = test system: NCI-H23
A498 = test system: A498
ACHN = test system: ACHN
EKVX = test system: EKVX
LOX IMVI = test system: LOX IMVI
MOLT-4 = test system: MOLT-4
OVCAR-3 = test system: OVCAR-3
HT-29 = test system: HT-29
SF-268 = test system: SF-268
MDA-MB-435 = test system: MDA-MB-435
SNB-19 = test system: SNB-19
TK-10 = test system: TK-10
Malme-3M = test system: Malme-3M
HCT-116 = test system: HCT-116
DU-145 = test system: DU-145
RXF 393 = test system: RXF 393
M14 = test system: M14
T47D = test system: T47D
HOP-92 = test system: HOP-92
NCI-H226 = test system: NCI-H226
MCF7 = test system: MCF7
HCC 2998 = test system: HCC 2998
OVCAR-5 = test system: OVCAR-5
SNB-75 = test system: SNB-75
K562 = test system: K562

C[C@H]1CC[C@H]([C@@H](C)[C@H]2[C@@H](O)C[C@H]3[C@@H]4CC[C@H]5C[C@@H](O)CC[C@]5(C)[C@H]4CC[C@]23C)NC1
GI50 (UO-31): 13.9 µM (inactive) | GI50 (Hs-578T): 27.1 µM (inactive) | GI50 (SK-MEL-28): 18.7 µM (inactive) | GI50 (PC-3): 12.4 µM (inactive) | GI50 (OVCAR-4): 15.8 µM (inactive) | GI50 (SK-OV-3): 15.9 µM (inactive) | GI50 (SR): 6.34 µM (inactive) | GI50 (COLO 205): 19.6 µM (inactive) | GI50 (IGROV-1): 19.2 µM (inactive) | GI50 (HOP-62): 23.7 µM (inactive) | GI50 (UACC-62): 14.6 µM (inactive) | GI50 (RPMI-8226): 7.31 µM (inactive) | GI50 (SK-MEL-5): 21.3 µM (inactive) | GI50 (SW-620): 18.7 µM (inactive) | GI50 (NCI/ADR-RES): 14.7 µM (inactive) | GI50 (OVCAR-8): 15 µM (inactive) | GI50 (A549): 17 µM (inactive) | GI50 (MDA-N): 21.3 µM (inactive) | GI50 (SK-MEL-2): 19.6 µM (inactive) | GI50 (SF-295): 16.9 µM (inactive) | GI50 (SF-539): 23.6 µM (inactive) | GI50 (HCT-15): 17 µM | GI50 (HL-60): 4.45 µM (inactive) | GI50 (CAKI-1): 16.1 µM (inactive) | GI50 (NCI-H522): 15.8 µM (inactive) | GI50 (SN12C): 16.3 µM (inactive) | GI50 (MDA-MB-231): 21.2 µM (inactive) | GI50 (BT-549): 17.5 µM (inactive) | GI50 (UACC-257): 18.4 µM (inactive) | GI50 (KM12): 15.2 µM (inactive) | GI50 (786-0): 18.9 µM (inactive) | GI50 (U-251): 15.8 µM (inactive) | GI50 (NCI-H460): 20.2 µM (inactive) | GI50 (CCRF-CEM): 5.53 µM (inactive) | GI50 (NCI-H23): 15.5 µM (inactive) | GI50 (A498): 17.4 µM (inactive) | GI50 (ACHN): 21.2 µM (inactive) | GI50 (EKVX): 16.3 µM (inactive) | GI50 (LOX IMVI): 19.2 µM (inactive) | GI50 (MOLT-4): 9.66 µM (inactive) | GI50 (OVCAR-3): 18.7 µM (inactive) | GI50 (HT-29): 18.1 µM (inactive) | GI50 (SF-268): 23.1 µM (inactive) | GI50 (MDA-MB-435): 16.7 µM (inactive) | GI50 (SNB-19): 23.5 µM (inactive) | GI50 (TK-10): 18.3 µM (inactive) | GI50 (Malme-3M): 15.7 µM (inactive) | GI50 (HCT-116): 15.6 µM (inactive) | GI50 (DU-145): 16.2 µM (inactive) | GI50 (RXF 393): 20.6 µM (inactive) | GI50 (M14): 24.2 µM (inactive) | GI50 (T47D): 12.6 µM (inactive) | GI50 (HOP-92): 14.5 µM (inactive) | GI50 (NCI-H226): 18.1 µM (inactive) | GI50 (MCF7): 21.9 µM (inactive) | GI50 (HCC 2998): 18.6 µM (inactive) | GI50 (OVCAR-5): 19.3 µM (inactive)

CCOc1ccc(/N=N/C2C(=O)N(C(=O)CC(=O)Nc3ccccc3)N=C2C)cc1 (centres undefined)
GI50 (UO-31): > 100 µM (inactive) | GI50 (Hs-578T): 16 µM (inactive) | GI50 (SK-MEL-28): 48.5 µM (inactive) | GI50 (PC-3): > 100 µM (inactive) | GI50 (OVCAR-4): > 100 µM (inactive) | GI50 (SR): 27.4 µM (inactive) | GI50 (COLO 205): > 100 µM (inactive) | GI50 (IGROV-1): 37.3 µM (inactive) | GI50 (HOP-62): 59.3 µM (inactive) | GI50 (UACC-62): 39.5 µM (inactive) | GI50 (SK-MEL-5): 42.8 µM (inactive) | GI50 (SW-620): 33.4 µM (inactive) | GI50 (NCI/ADR-RES): 75.7 µM (inactive) | GI50 (OVCAR-8): > 100 µM (inactive) | GI50 (A549): 34.5 µM (inactive) | GI50 (MDA-N): 2.68 µM (inactive) | GI50 (SK-MEL-2): 66.4 µM (inactive) | GI50 (SF-295): > 100 µM (inactive) | GI50 (SNB-75): 23.1 µM (inactive) | GI50 (SF-539): 35.2 µM (inactive) | GI50 (HCT-15): 57.4 µM | GI50 (HL-60): 33.8 µM (inactive) | GI50 (CAKI-1): 55.3 µM (inactive) | GI50 (NCI-H522): 83.9 µM (inactive) | GI50 (SN12C): 82 µM (inactive) | GI50 (MDA-MB-231): 39.8 µM (inactive) | GI50 (BT-549): 33.6 µM (inactive) | GI50 (UACC-257): > 100 µM (inactive) | GI50 (KM12): 18.6 µM (inactive) | GI50 (786-0): > 100 µM (inactive) | GI50 (U-251): 34.8 µM (inactive) | GI50 (NCI-H460): 34.6 µM (inactive) | GI50 (CCRF-CEM): > 100 µM (inactive) | GI50 (NCI-H23): 78.3 µM (inactive) | GI50 (A498): 79.4 µM (inactive) | GI50 (ACHN): > 100 µM (inactive) | GI50 (EKVX): 17.4 µM (inactive) | GI50 (LOX IMVI): 43.3 µM (inactive) | GI50 (MOLT-4): 36.5 µM (inactive) | GI50 (OVCAR-3): 53.8 µM (inactive) | GI50 (HT-29): 33.6 µM (inactive) | GI50 (SF-268): 61.8 µM (inactive) | GI50 (MDA-MB-435): 5.07 µM (inactive) | GI50 (SNB-19): 36.5 µM (inactive) | GI50 (TK-10): > 100 µM (inactive) | GI50 (Malme-3M): > 100 µM (inactive) | GI50 (HCT-116): 29.1 µM (inactive) | GI50 (DU-145): > 100 µM (inactive) | GI50 (RXF 393): > 100 µM (inactive) | GI50 (M14): 58.1 µM (inactive) | GI50 (T47D): 30.8 µM (inactive) | GI50 (HOP-92): 28.5 µM (inactive) | GI50 (NCI-H226): > 100 µM (inactive) | GI50 (MCF7): 54.8 µM (inactive) | GI50 (HCC 2998): 40.9 µM (inactive) | GI50 (OVCAR-5): > 100 µM (inactive)

CC1NC(=O)[C@H](C)N(C)C(=O)[C@@H]2CCCN2C(=O)[C@@H](NC(=O)C(Cc2ccccc2)NC(=O)/C=C/C=C/C=C/C=C/C=C/C(=O)NC2=C(O)CCC2=O)COC(=O)[C@@H]2C[C@@H](C)CN2C1=O (stereo partly drawn) (X28-[ξF]SP[NMeA][ξA][Pro(4R-Me)]; ester 2-C)
GI50 (UO-31): > 100 µM (inactive) | GI50 (Hs-578T): > 100 µM (inactive) | GI50 (SK-MEL-28): > 100 µM (inactive) | GI50 (PC-3): > 100 µM (inactive) | GI50 (OVCAR-4): > 100 µM (inactive) | GI50 (SK-OV-3): > 100 µM (inactive) | GI50 (SR): > 100 µM (inactive) | GI50 (COLO 205): > 100 µM (inactive) | GI50 (IGROV-1): > 100 µM (inactive) | GI50 (HOP-62): > 100 µM (inactive) | GI50 (UACC-62): > 100 µM (inactive) | GI50 (RPMI-8226): > 100 µM (inactive) | GI50 (SK-MEL-5): > 100 µM (inactive) | GI50 (SW-620): > 100 µM (inactive) | GI50 (NCI/ADR-RES): > 100 µM (inactive) | GI50 (A549): > 100 µM (inactive) | GI50 (MDA-N): > 100 µM (inactive) | GI50 (SK-MEL-2): > 100 µM (inactive) | GI50 (SF-295): > 100 µM (inactive) | GI50 (SNB-75): > 100 µM (inactive) | GI50 (SF-539): > 100 µM (inactive) | GI50 (HCT-15): > 100 µM | GI50 (HL-60): > 100 µM (inactive) | GI50 (CAKI-1): > 100 µM (inactive) | GI50 (NCI-H522): > 100 µM (inactive) | GI50 (SN12C): > 100 µM (inactive) | GI50 (MDA-MB-231): > 100 µM (inactive) | GI50 (BT-549): > 100 µM (inactive) | GI50 (UACC-257): > 100 µM (inactive) | GI50 (KM12): > 100 µM (inactive) | GI50 (786-0): > 100 µM (inactive) | GI50 (U-251): > 100 µM (inactive) | GI50 (NCI-H460): > 100 µM (inactive) | GI50 (CCRF-CEM): > 100 µM (inactive) | GI50 (NCI-H23): > 100 µM (inactive) | GI50 (A498): > 100 µM (inactive) | GI50 (ACHN): > 100 µM (inactive) | GI50 (EKVX): > 100 µM (inactive) | GI50 (LOX IMVI): > 100 µM (inactive) | GI50 (OVCAR-3): > 100 µM (inactive) | GI50 (HT-29): > 100 µM (inactive) | GI50 (SF-268): > 100 µM (inactive) | GI50 (MDA-MB-435): > 100 µM (inactive) | GI50 (SNB-19): > 100 µM (inactive) | GI50 (TK-10): 54.8 µM (inactive) | GI50 (Malme-3M): > 100 µM (inactive) | GI50 (HCT-116): > 100 µM (inactive) | GI50 (DU-145): > 100 µM (inactive) | GI50 (RXF 393): > 100 µM (inactive) | GI50 (M14): > 100 µM (inactive) | GI50 (T47D): > 100 µM (inactive) | GI50 (HOP-92): > 100 µM (inactive) | GI50 (MCF7): > 100 µM (inactive) | GI50 (HCC 2998): > 100 µM (inactive) | GI50 (K562): > 100 µM (inactive) | GI50 (OVCAR-5): > 100 µM (inactive)
